Data published in article PMC6112376, “Comprehensive Analyses and Prioritization of Tox21 10K Chemicals Affecting Mitochondrial Function by in-Depth Mechanistic Studies” (Environmental Health Perspectives, 2018).
Where two headings read alike, the source gives them in different places.

Assays:
[1] = test system: Caenorhabditis elegans strain PE255; test: In vivo C. elegans ATP status assay
[2] = test system: p53 (p53-bla HCT-116 cells); test: p53 β-lactamase reporter gene assay; format: cell-based, human; settings: Homo sapiens; 16 h incubation; mean±SD of three experiments
[3] = test system: Nrf2/ARE (ARE-bla HepG2 cells); test: ARE β-lactamase reporter gene assay; format: cell-based, human; settings: Homo sapiens, HepG2; 16 h incubation; mean±SD of three experiments; read-out: ARE (HepG2) EC50
[4] = test system: isolated rat liver mitochondria; test: Oxygen consumption, Clark-type oxygen electrode; format: biochemical
HepG2 cells [5] = settings: cited from earlier work
HepG2 cells [6] = test: cells; settings: Homo sapiens
HepG2 cells [7] = test: Intracellular ATP content (cell viability) assay; format: cell-based, human; settings: Homo sapiens, HepG2, 40 h
[8] = test system: Caenorhabditis elegans (Bristol N2); test: C. elegans larval development and growth assay
rat primary hepatocytes [9] = test: MMP assay in rat primary hepatocytes; settings: Rattus norvegicus, Hepatocyte, 1 h
[10] = test system: HeLa cells expressing YFP-Parkin; test: Parkin translocation assay; format: cell-based, human
HepG2 cells [11] = test: ROS-Glo hydrogen peroxide (ROS) assay; format: cell-based, human; settings: Homo sapiens, HepG2, 2 h, read-out: ROS (HepG2) EC50
hNSC = test: MMP assay in human neural stem cells (hNSC); format: cell-based; settings: Homo sapiens, Neural stem cell, 1 h, read-out: hNSC IC50 (MMP)
rat primary hepatocytes [12] = test system: rat primary hepatocytes

For O=C(Nc1ccc(Cl)cc1)Nc1ccc(Cl)c(Cl)c1 [Triclocarban], the “LUM: mean difference in luminescence (ATP content) relative to plate controls” value ([1]; 0.05 µM) was -0.00831, the “LUM: mean difference in luminescence (ATP content) relative to plate controls” value ([1]; 0.1 µM) was 0.1123 and the “LUM: mean difference in luminescence (ATP content) relative to plate controls” value ([1]; 0.5 µM) was 0.4779. For the same compound, the “LUM: mean difference in luminescence (ATP content) relative to plate controls” value ([1]; 1 µM) was 2.3316, the “LUM: mean difference in luminescence (ATP content) relative to plate controls” value ([1]; 5 µM) was 2.049 and the “LUM: mean difference in luminescence (ATP content) relative to plate controls” value ([1]; 10 µM) was 3.074. The “LUM: mean difference in luminescence (ATP content) relative to plate controls” value ([1]; 25 µM) was 3.397, the “LUM: mean difference in luminescence (ATP content) relative to plate controls” value ([1]; 50 µM) was 3.34 and the “LUM: mean difference in luminescence (ATP content) relative to plate controls” value ([1]; 75 µM) was 3.2375. For the same compound, the “LUM: mean difference in luminescence (ATP content) relative to plate controls” value ([1]; 100 µM) was 2.494, the “effect on ATP content (in words)” value ([1]; 0.5–100μM) was “inhibited” and the minimal effective concentration ([1]; Caenorhabditis elegans, read-out: LEC LUM: lowest effect concentration for luminescence, a measure of nematode ATP content) was 0.5 µM. For the same compound, the EC50 [2] was 5.33 ± 2.02 µM, the EC50 [3] was 6.68 µM and the “Potential Mechanism” value [4] was “Uncoupler”. For the same compound, the “effect on mitochondrial respiration (in words)” value [4] was “effects similar to those of FCCP”, the “I-ADP, % of control (O2 consumption rate)” value ([4]; 0.032 µM) was 107 (58.8) % of control and the “I-sub, % of control (O2 consumption rate)” value ([4]; 0.032 µM) was 115 (15.1) % of control. The “II-ADP, % of control (O2 consumption rate)” value (“II-ADP, % of control” for short) ([4]; 0.032 µM) was 93 (82.1) % of control, the “II-sub, % of control (O2 consumption rate)” value (from here on “II-sub, % of control”) ([4]; 0.032 µM) was 93 (22.8) % of control and the “I-ADP, % of control (O2 consumption rate)” value ([4]; 0.16 µM) was 96 (52.6) % of control. The “I-sub, % of control (O2 consumption rate)” value ([4]; 0.16 µM) was 118 (15.5) % of control, the “II-ADP, % of control” value ([4]; 0.16 µM) was 104 (91.7) % of control and the “II-sub, % of control” value ([4]; 0.16 µM) was 114 (28.1) % of control. For the same compound, the “I-ADP, % of control (O2 consumption rate)” value ([4]; 0.8 µM) was 103 (56.5) % of control, the “I-sub, % of control (O2 consumption rate)” value ([4]; 0.8 µM) was 153 (20.1) % of control and the “II-ADP, % of control” value ([4]; 0.8 µM) was 99 (87.1) % of control. For the same compound, the “II-sub, % of control” value ([4]; 0.8 µM) was 128 (31.4) % of control, the “I-ADP, % of control (O2 consumption rate)” value ([4]; 20 µM) was 143 (78.2) % of control and the “I-sub, % of control (O2 consumption rate)” value ([4]; 20 µM) was 631 (82.6) % of control. The “II-ADP, % of control” value ([4]; 20 µM) was 95 (84.1) % of control, the “II-sub, % of control” value ([4]; 20 µM) was 290 (71.4) % of control and the “MMP assays efficacy (%) qHTS-HepG2” value (HepG2 cells [5]) was -119±8%. For the same compound, the IC50 (HepG2 cells [5]; read-out: MMP assays IC50 (µM), qHTS-HepG2) was 0.14 ± 0.05 µM, the IC50 (HepG2 cells [6]; HepG2, 1 h, read-out: HepG2 IC50 Galactose (MMP)) was 1.36 µM and the IC50 (HepG2 cells [6]; HepG2, 1 h, read-out: HepG2 IC50 Glucose (MMP)) was 0.93 µM. The IC50 (HepG2 cells [6]; HepG2, read-out: IC50 in HepG2 cells (MMP, tier-one retest)) was 0.17 µM, the Emax (HepG2 cells [6]; HepG2, read-out: MMP assays efficacy (%) HepG2) was 102% and the IC50 (HepG2 cells [7]; read-out: ATP (HepG2, galactose) IC50) was 15.8 µM. The IC50 (HepG2 cells [7]; read-out: ATP (HepG2, glucose) IC50) was 19.1 µM, the “EXT: mean difference in nematode size relative to plate controls” value ([8]; 0.05 µM) was 0.05115 and the “EXT: mean difference in nematode size relative to plate controls” value ([8]; 0.1 µM) was -0.1287. The “EXT: mean difference in nematode size relative to plate controls” value ([8]; 0.5 µM) was 0.279, the “larval growth effect at 0.5μM” value ([8]; 0.5 µM) was “severe larval growth arrest” and the “EXT: mean difference in nematode size relative to plate controls” value ([8]; 1 µM) was 1.127. For the same compound, the “EXT: mean difference in nematode size relative to plate controls” value ([8]; 5 µM) was 1.268, the “EXT: mean difference in nematode size relative to plate controls” value ([8]; 10 µM) was 1.264 and the “EXT: mean difference in nematode size relative to plate controls” value ([8]; 25 µM) was 1.322. The “EXT: mean difference in nematode size relative to plate controls” value ([8]; 50 µM) was 1.038, the “EXT: mean difference in nematode size relative to plate controls” value ([8]; 75 µM) was 0.8579 and the “EXT: mean difference in nematode size relative to plate controls” value ([8]; 100 µM) was 0.6913. The “effect on larval growth (in words)” value ([8]; 0.5–100μM) was “inhibited”, the minimal effective concentration ([8]; Caenorhabditis elegans, read-out: LEC EXT: lowest effect concentration for extinction, a measure of nematode size) was 0.5 µM and the IC50 (rat primary hepatocytes [9]; read-out: IC50 in rat primary hepatocytes (MMP, tier-one retest)) was 0.17 µM. The IC50 (rat primary hepatocytes [9]; read-out: Rat hepatocytes IC50 (MMP)) was 1.77 µM, the Parkin recruitment [10] was “Active” and the EC50 (HepG2 cells [11]) was 31.8 µM. The IC50 (hNSC) was 0.43 µM, the “MMP assays efficacy (%) Rat Hepatocytes” value (rat primary hepatocytes [12]) was -113±53% and the “Rat hepatocytes (efficacy) (MMP)” value (rat primary hepatocytes [12]) was 1.77±0.60 ( −73.7±3.11 ) %.
